{"source": "paper PMC9027532", "about": "“Preclinical Pharmacokinetic Studies of a Novel Diuretic Inhibiting Urea Transporters” (Molecules, 2022)", "key": {"[1]": {"test": "Excretion experiment in rats (urine, feces)", "format": "in vivo, SD rats", "settings": "single oral dose 100 mg/kg", "protocol": "The cumulative excretion ratios of unchanged 25a in the urine, feces, and bile of rats after a single oral dose at 100 mg/kg were 0.14% ± 0.05%, 3.16% ± 0.96%, and 0.018% ± 0.006%, respectively (Figure 6 and Tables S5–S7). […] Further phenotyping and metabolite identification studies should be conducted to elucidate the major elimination forms of 25a in the future.\nFour SD rats were adapted in metabolic cages for 3 days in advance and then administrated with 25a at 100 mg/kg orally. Feces and urine were collected and weighed at 0–6 h, 6–12 h, […], 24–36 h, 36–48 h, 48–60 h, and 60–72 h after administration. Parallelly, four SD rats received bile duct cannulation and were given a single dose of 25a at 100 mg/kg orally. Bile was collected and weighed at 0–2 h, 0–4 h, 0–6 h, 0–8 h, 0–10 h, 0–12 h, 0–24 h, 0–36 h, and 0–48 h after administration. All samples were stored at −80 °C until analysis."}, "[2]": {"test": "Plasma protein binding by equilibrium dialysis, rat plasma", "format": "in vitro ADME, SD rats", "protocol": "The plasma protein binding (PPB) and blood plasma ratio (BPR) are crucial parameters influencing the drug distribution and elimination in plasma. The PPB profile of 25a was evaluated by equilibrium dialysis, a classic method to assess the interactions of small molecules with proteins. The PPB of 25a was tested at 50, 500, and 2500 ng/mL (Table 7). […] When considering the allometric scaling of PK parameters, the species difference of protein binding between humans and rats should be considered.\nThe plasma protein binding (PPB) ratio of 25a was assessed via equilibrium dialysis in SD rats and human plasma. Four hundred microliters of plasma containing 50, 500, or 2500 ng/mL 25a were loaded into the dialysis bags (plasma side), and the bags were placed into tubes containing 4 mL of the dialysis buffer (buffer side). The tubes were then rotated at approximately 100 rpm in a humidified incubator with 5% CO2 at 37 ± 1 °C for 5 h.\nAfter the 5 h dialysis, aliquots of 50 μL samples were taken from both the buffer and the plasma sides. An equal volume of the opposite blank matrix (buffer or plasma) was added to each sample to reach a final volume of 100 μL with a volume ratio of plasma to dialysis buffer at 1:1 (v/v). All samples were further processed by adding 600 μL of stop solution (containing 10 ng/mL IS) to precipitate protein for LC–MS/MS analysis. The PPB ratio (%) was calculated by PPB% = 100% × (1 − Conc.buffer side/Conc.plasma side)."}, "[3]": {"system": "rats", "set-up": "method as in PMID 34601246", "settings": "orally administered; cited from earlier work"}}, "note": "“And” between values parts separate entries of the source, which are not always exact repeats. Equal values may be shown once.", "data": [{"smiles": "CC(=O)Nc1ccc(NC(=O)c2ccc(C(C)=O)o2)cc1", "note": "[Compound 25a, N-(4-acetamidophenyl)-5-acetylfuran-2-carboxamide]", "values": [{"measurement": "total cumulative excretion fractions of unchanged 25a in urine, feces, and bile", "setting": "[1]", "value": "less than 5%"}, {"measurement": "Accumulated Amount in feces", "setting": "[1]; 0-6 h", "value": "0.248 ± 0.056", "unit": "mg"}, {"measurement": "Accumulated Amount in urine", "setting": "[1]; 0-6 h", "value": "0.0129 ± 0.0059", "unit": "mg"}, {"measurement": "Concentration in feces", "setting": "[1]; 0-6 h", "value": "6547.5 ± 1407.8", "unit": "ng/mL"}, {"measurement": "Concentration in urine", "setting": "[1]; 0-6 h", "value": "1865.0 ± 576.4", "unit": "ng/mL"}, {"measurement": "The cumulative excretion ratio in feces", "setting": "[1]; 0-6 h", "value": "1.009 ± 0.233", "unit": "%"}, {"measurement": "The cumulative excretion ratio in urine", "setting": "[1]; 0-6 h", "value": "0.051 ± 0.021", "unit": "%"}, {"measurement": "cumulative excretion ratio of unchanged 25a in feces", "setting": "[1]; 100 mg/kg", "value": "3.16% and 3.16% ± 0.96%"}, {"measurement": "cumulative excretion ratio of unchanged 25a in urine", "setting": "[1]; 100 mg/kg", "value": "0.14% and 0.14% ± 0.05%"}, {"measurement": "Accumulated Amount in feces", "setting": "[1]; 6-12 h", "value": "0.565 ± 0.130", "unit": "mg"}, {"measurement": "Accumulated Amount in urine", "setting": "[1]; 6-12 h", "value": "0.0221 ± 0.0046", "unit": "mg"}, {"measurement": "Concentration in feces", "setting": "[1]; 6-12 h", "value": "9237.5 ± 2337.8", "unit": "ng/mL"}, {"measurement": "Concentration in urine", "setting": "[1]; 6-12 h", "value": "1696.3 ± 1,244.3 ng/mL"}, {"measurement": "The cumulative excretion ratio in feces", "setting": "[1]; 6-12 h", "value": "2.261 ± 0.383", "unit": "%"}, {"measurement": "The cumulative excretion ratio in urine", "setting": "[1]; 6-12 h", "value": "0.089 ± 0.018", "unit": "%"}, {"measurement": "Accumulated Amount in feces", "setting": "[1]; 12-24 h", "value": "0.798 ± 0.309", "unit": "mg"}, {"measurement": "Accumulated Amount in urine", "setting": "[1]; 12-24 h", "value": "0.0305 ± 0.0066", "unit": "mg"}, {"measurement": "Concentration in feces", "setting": "[1]; 12-24 h", "value": "6053.3 ± 4545.2", "unit": "ng/mL"}, {"measurement": "Concentration in urine", "setting": "[1]; 12-24 h", "value": "869.3 ± 442.0", "unit": "ng/mL"}, {"measurement": "The cumulative excretion ratio in feces", "setting": "[1]; 12-24 h", "value": "3.139 ± 0.954", "unit": "%"}, {"measurement": "The cumulative excretion ratio in urine", "setting": "[1]; 12-24 h", "value": "0.125 ± 0.037", "unit": "%"}, {"measurement": "Accumulated Amount in feces", "setting": "[1]; 24-36 h", "value": "0.802 ± 0.310", "unit": "mg"}, {"measurement": "Accumulated Amount in urine", "setting": "[1]; 24-36 h", "value": "0.0317 ± 0.0077", "unit": "mg"}, {"measurement": "Concentration in feces", "setting": "[1]; 24-36 h", "value": "188.2 ± 121.9", "unit": "ng/mL"}, {"measurement": "Concentration in urine", "setting": "[1]; 24-36 h", "value": "132.4 ± 108.1", "unit": "ng/mL"}, {"measurement": "The cumulative excretion ratio in feces", "setting": "[1]; 24-36 h", "value": "3.153 ± 0.957", "unit": "%"}, {"measurement": "The cumulative excretion ratio in urine", "setting": "[1]; 24-36 h", "value": "0.131 ± 0.042", "unit": "%"}, {"measurement": "Accumulated Amount in feces", "setting": "[1]; 36-48 h", "value": "0.802 ± 0.310", "unit": "mg"}, {"measurement": "Accumulated Amount in urine", "setting": "[1]; 36-48 h", "value": "0.0327 ± 0.0085", "unit": "mg"}, {"measurement": "Concentration in feces", "setting": "[1]; 36-48 h", "value": "7.0 ± 8.8", "unit": "ng/mL"}, {"measurement": "Concentration in urine", "setting": "[1]; 36-48 h", "value": "104.4 ± 95.7", "unit": "ng/mL"}, {"measurement": "The cumulative excretion ratio in feces", "setting": "[1]; 36-48 h", "value": "3.155 ± 0.956", "unit": "%"}, {"measurement": "The cumulative excretion ratio in urine", "setting": "[1]; 36-48 h", "value": "0.135 ± 0.047", "unit": "%"}, {"measurement": "Accumulated Amount in feces", "setting": "[1]; 48-60 h", "value": "0.802 ± 0.310", "unit": "mg"}, {"measurement": "Accumulated Amount in urine", "setting": "[1]; 48-60 h", "value": "0.0332 ± 0.0089", "unit": "mg"}, {"measurement": "Concentration in feces", "setting": "[1]; 48-60 h", "value": "2.1 ± 3.1", "unit": "ng/mL"}, {"measurement": "Concentration in urine", "setting": "[1]; 48-60 h", "value": "49.6 ± 31.9", "unit": "ng/mL"}, {"measurement": "The cumulative excretion ratio in feces", "setting": "[1]; 48-60 h", "value": "3.155 ± 0.956", "unit": "%"}, {"measurement": "The cumulative excretion ratio in urine", "setting": "[1]; 48-60 h", "value": "0.137 ± 0.049", "unit": "%"}, {"measurement": "Accumulated Amount in feces", "setting": "[1]; 60-72 h", "value": "0.802 ± 0.310", "unit": "mg"}, {"measurement": "Accumulated Amount in urine", "setting": "[1]; 60-72 h", "value": "0.0337 ± 0.0090", "unit": "mg"}, {"measurement": "Concentration in feces", "setting": "[1]; 60-72 h", "value": "3.8 ± 3.8", "unit": "ng/mL"}, {"measurement": "Concentration in urine", "setting": "[1]; 60-72 h", "value": "32.5 ± 11.2", "unit": "ng/mL"}, {"measurement": "The cumulative excretion ratio in feces", "setting": "[1]; 60-72 h", "value": "3.156 ± 0.955", "unit": "%"}, {"measurement": "The cumulative excretion ratio in urine", "setting": "[1]; 60-72 h", "value": "0.139 ± 0.049", "unit": "%"}, {"measurement": "fraction unbound at 5 h, 50 ng/mL", "setting": "[2]; SD, rat plasma, 50 ng/mL", "value": 0.368}, {"measurement": "fraction unbound at 5 h, 500 ng/mL", "setting": "[2]; SD, rat plasma, 500 ng/mL", "value": 0.386}, {"measurement": "fraction unbound at 5 h, 2500 ng/mL", "setting": "[2]; SD, rat plasma, 2500 ng/mL", "value": 0.355}, {"measurement": "fraction unbound at 5 h", "setting": "[2]; Sprague-Dawley, rat plasma, 50, 500, 2500 ng/mL, read-out: mean plasma protein binding (PPB) (converted)", "value": "~0.4"}, {"measurement": "Na+, K+, and Cl− levels in the blood", "setting": "[3]", "value": "without disturbing"}, {"measurement": "duration of urea-selective diuresis", "setting": "[3]", "value": 8, "unit": "h"}, {"measurement": "urine output vs vehicle control", "setting": "[3]", "value": "three times higher urine output than vehicle control"}]}]}
